Measured values published in patent US10980754B2, “Anti-fungal compounds” (SAINT LOUIS UNIVERSITY, priority 2016, dated 2021).
Values after ≈ are worked out from the molar mass of the structure shown.

Legend:
C. neoformans = test: Fungicidal assay; type: cell-based; settings: 48 hours exposure at 2×, 4× and 8× the MIC, spotted, 30° C. for 2 days
Description: To test for fungicidal activity, aliquots of cells were removed after 48 hours of growth in the presence of test compounds at 2×, 4×, and 8× the respective MICs and spotted them on YPD plates. The plates were incubated at 30° C. for 2 days and checked for growth. Growth of cells treated with test compounds was compared to FLC-treated cells, which is known to be fungistatic and to AMB-treated cells, which is known to be fungicidal (Klepser, et al., 1998; Mesa-Arango, et al., 2014).
compounds #54 and #284 were evaluated for fungicidal versus fungistatic activity. This analysis was done in a qualitative assay in parallel with FLC, which is known to be fungistatic (Klepser, et al., 1998) and AMB, which is known to be fungicidal (Mesa-Arango, et al., 2014). The MICs were 3 μM (0.9 μg/mL), 1.5 μM (1.4 μg/mL), 12 μM and 0.31 μM for FLC, AMB, #54 and #284 respectively. (FIGS. 8A & 8B).

[1] = Cytotoxicity in hepatoma cells (MTS); settings: human, HepDES19 cells, CC50, HepDES19 cells, 72 hours, MTS
Description: HepDES19 cells (1.0×10^4 cells per well) were seeded in 96-well plates and incubated in DMEM with 10% fetal bovine serum (FBS) plus 1% penicillin and streptomycin, 1% nonessential amino acids, and 1% glutamine. The compounds were diluted in the medium at concentrations ranging from 0.78 to 100 μM plus 1% DMSO and added to the cells 48 hours after plating, with each concentration tested in triplicate. Cells were incubated with the compound for 72 hours and cytotoxicity was measured using a mitochondrial metabolic assay with MTS (Promega). The data were transformed to log[inhibitor] and fit to a 4-variable slope curve using GraphPad Prism (v6, www.graphpad.com).
Three days later, the MTS reagent was added for 90 minutes prior to terminating the incubation period and reading the OD480.

[2] = tested on: C. neoformans var grubii, KN99; test: Inhibition of C. neoformans growth, limiting dilution assay (MIC); type: cell-based; settings: for MIC80 / MIC: Cryptococcus neoformans; for MIC80: KN99α, minimal concentration inhibiting 80% of growth relative to vehicle; for inhibition of C. neoformans growth: YNB-02+1% DMSO at 35° C., at 15 and 60 μM
Description: Strains and media. All inhibition assays were performed with C. neoformans var grubii, KN99 (serotype A, MATα; kindly provided by Jennifer Lodge). Two clinical strains of C. neoformans var grubii, serotype A, were kindly provided by Tamara Doering and Andre Spec. […] Each assay was done in triplicate and all values are the average of two or more independent assays. The data are presented as the average cell density as a percent of DMSO-only treated cells. […] However, these conditions are unlike conditions encountered by C. neoformans in mammalian infections, where nutrients are limited, and the pH and temperature are higher than in YPD media. The cryptococcal stress response to low glucose and high pH and temperature may alter its susceptibility to the inhibitors. It is also possible that the enzymes targeted by the inhibitors may render the cell temperature sensitive when inhibited. To better mimic growth in mammals, growth was tested without shaking in nutrient-limited media at 35° C. […] However, as the nutrient-limited media and higher temperature is more similar to mammalian cell growth conditions, these conditions were used for all further assays. […] All values were measured at least two times in independent experiments and the average MIC is reported.

KN99α cells [3] = test: Growth inhibition in YPD+1% DMSO at 25° C.; type: cell-based, C. neoformans; settings: at 60 μM
Description: FIGS. 5A & 5B. Inhibition of KN99α cells by β-thujaplicinol and β-thujaplicin under conditions (FIG. 5A) YPD at 25° C. and (FIG. 5B) YNB-02 at 35° C.
An assay was developed that could cheaply and reproducibly measure inhibition of C. neoformans growth using a 96-well format. C. neoformans growth was initially tested in YPD versus YPD+1% DMSO at 25° C. with shaking for 24 and 48 hours. […] However, these conditions are unlike conditions encountered by C. neoformans in mammalian infections, where nutrients are limited, and the pH and temperature are higher than in YPD media. The cryptococcal stress response to low glucose and high pH and temperature may alter its susceptibility to the inhibitors. It is also possible that the enzymes targeted by the inhibitors may render the cell temperature sensitive when inhibited. To better mimic growth in mammals, growth was tested without shaking in nutrient-limited media at 35° C. First, the cell culture media, RPMI-1640+0.4% glucose+1% DMSO (Sigma) as defined by National Committee for Clinical Laboratory Standards (NCCLS) was tested for anti-fungal susceptibility testing. However, the cells grew very poorly under these conditions. […] (FIG. 5A). However, as the nutrient-limited media and higher temperature is more similar to mammalian cell growth conditions, these conditions were used for all further assays.

[4] = tested on: clinical strains of C. neoformans var grubii, serotype A; test: MIC in two independent clinical strains; type: cell-based; settings: Cryptococcus neoformans
Description: Strains and media. All inhibition assays were performed with C. neoformans var grubii, KN99 (serotype A, MATα; kindly provided by Jennifer Lodge). Two clinical strains of C. neoformans var grubii, serotype A, were kindly provided by Tamara Doering and Andre Spec. […] Cells were incubated without shaking for 48 hours at 35° C. and cell density was measured at […]. […] Each assay was done in triplicate and all values are the average of two or more independent assays. The data are presented as the average cell density as a percent of DMSO-only treated cells. MICs are reported as the minimal concentration needed to inhibit 80% of C. neoformans growth relative to vehicle-treated controls. Another thirty-seven of the molecules are αHTs (FIG. 4), which have a third contiguous oxygen atom on the troponoid ring.

[5] = tested on: C. neoformans var grubii, KN99; test: Synergy (checkerboard) assay with Fluconazole or Amphotericin B; type: cell-based; settings: in combination with either FLC or AMB
Description: Each assay was performed in triplicate and all values are the average of two or more independent assays. The fractional inhibitory concentration index (FICI) model is expressed as ΣFIC=FICA+FICB=MICA′/MICA+MICB′/MICB, where MICA, and MICB are the MIC values of agents A and B used alone and MICA′ and MICB′ are the MICs of agents A and B used in combination.

KN99α cells [6] = test: Inhibition under capsule-inducing conditions (MIC); type: cell-based; settings: Cryptococcus neoformans; YNB-02+1% DMSO, 37° C. with 5% CO2, 48 hours
Description: KN99α cells were grown overnight in YPD at 30° C. with shaking. […] Capsule was visualized using bright-field microscopy as a halo surrounding the yeast cell through India ink exclusion. The screening was conducted in the nutrient-limited media YNB-02 at 35° C. to mimic some aspects of the growth conditions in humans. […] The untreated cells grown in YNB-02 were able to elaborate the capsule (FIG. 7D) compared to cells grown overnight in YPD at 30° C. (FIG. 7C).

KN99α cells [7] = test: MIC assays of hydrolysis products of #284 and p-benzoic acid; type: cell-based, C. neoformans; settings: dilution series 0.19-50 μM, 48 hours at 35° C.
Description: FIG. 6. […] Values are mean±standard deviation from three replicates.
The solution was mixed by vortexing until a prominent color change (pale yellow to dark orange) was apparent. This reaction was performed in triplicate. One aliquot of the reaction mixture was stored at room temperature, one at 35° C., and one at 40° C. After 24 hours, the reaction mixtures were neutralized with HCl.
This would release a tropothione, possibly in multiple oxidation states, as well as p-benzoic acid, any of which could potentially act as inhibitors.

[8] = YNB-02+1% DMSO, 35° C., 48 hours
[9] = 48 h, measured alone, 80% of cells inhibited relative to vehicle, run with synergy and fungicidal assays

Compound	cell growth on YPD plates after drug exposure (C. neoformans)	CC50 at 72 h [1] [µM]	MIC80 [2, 8] [µM]	inhibition of C. neoformans growth [2]	inhibition of C. neoformans growth (KN99α cells [3])	MIC [2, 9] [µM]	other results
C[C@@H]1[C@H](O)[C@@H](C)/C=C/C=C/C=C/C=C/C=C/C=C/C=C/[C@H](O[C@@H]2O[C@H](C)[C@@H](O)[C@H](N)[C@@H]2O)C[C@@H]2O[C@](O)(C[C@@H](O)C[C@@H](O)[C@H](O)CC[C@@H](O)C[C@@H](O)CC(=O)O[C@H]1C)C[C@H](O)[C@H]2C(=O)O [AMB, Amphotericin B]	no cell growth						
CC(C)c1ccc(O)c(=O)c(O)c1 [Compound 46, β-thujaplicinol]		23	8 (≈ 1.44 µg/mL)	some inhibition	almost completely inhibited		MIC [2, 8]: ≤ 15 µM
CC(C)c1cccc(=O)c(O)c1 [Compound 47, β-thujaplicin]		66.5	21 (≈ 3.45 µg/mL)	some inhibition	almost completely inhibited		
O=c1ccccc(Br)c1O [Compound 54, 3-bromotropolone]		95	7 (≈ 1.41 µg/mL)			12	MIC [4]: 6 to 12 µM (≈ 1.21 to 2.41 µg/mL); FIC index [5]: 2; FIC value [5]: 1; MIC (KN99α cells [6]): 6 to 12 µM (≈ 1.21 to 2.41 µg/mL)
OC(Cn1cncn1)(Cn1cncn1)c1ccc(F)cc1F [FLC, Fluconazole, reference compound]	Significant cell growth					3	MIC ([2]; measured alone, 80% of cells inhibited relative to vehicle, run with synergy and fungicidal assays): 0.9 µg/mL
p-benzoic acid							MIC (KN99α cells [7]): > 50 µM
